The test concerns db/db (BKS.Cg-+Lepr^db/+Lepr^db) mice. Kind of test: Plasma glucose after 21 days of administration in powder chow, alone or with pioglitazone. It counts as in vivo. The following applies: male db/db mice, 21 days in powder chow, feeding condition; average (n=7) ± standard deviation. How it is done:
Male db/db (BKS.Cg-+Lepr^db/+Lepr^db) mice (6 weeks of age, CLEA Japan (Tokyo, Japan)) were divided into 4 groups (n=7 in each group) comprising Group A to Group D. Group A had free access to CE-2 powder chow (CLEA Japan) for 21 days. […] Group C had free access to CE-2 powder chow (CLEA Japan) containing 0.0075% (w/w) of pioglitazone hydrochloride for 21 days. The dose of pioglitazone in Group C was calculated to be 17.7±0.6 (mean±SD) mg/kg body weight/day. […] During 21 days of administration of the powder chow, there were not significant differences in the administration amount of the powder chow in the above 4 groups. After 21 days of administration of the powder chow, blood samples were taken from the orbital veins of the mice by capillary pipette under feeding condition, and plasma glucose levels were enzymatically measured by using Autoanalyzer 7080 (Hitachi, Japan).
The values in the table means average (n=7)±standard deviation.

As for `N#Cc1ccccc1Cn1c(N2CCC[C@@H](N)C2)ncc(F)c1=O` [Compound I, 2-[[2-[(3R)-3-Amino-piperidinyl)-5-fluoro-6-oxo-6H-pyrimidinyl]methyl]-benzonitrile], the “Plasma Glucose” value worked out at 412.4 ± 77.5 mg/dL.

As for `CCc1ccc(CCOc2ccc(CC3SC(=O)NC3=O)cc2)nc1` (centres unmarked) [Pioglitazone, 5-{[4-(2-(5-ethyl-2-pyridyl)ethoxy)phenyl]-methyl}-thiazolidine-2,4-dione], the “Plasma Glucose” value came out at 394.4 ± 47.9 mg/dL.

(Values after patent publication US20070060529A1, “ADMINISTRATION OF DIPEPTIDYL PEPTIDASE INHIBITORS” (priority 2005, published 2007).)
